From patent publication US8183239B2, “Substituted piperazines and piperidines as modulators of the neuropeptide Y2 receptor” (Janssen Pharmaceutica NV, priority 2005, dated 2012)

target: T1, Y2 receptors (Homo sapiens, UniProt P49146); assay: Radioligand binding assay ([125I]PYY, KAN-Ts cell membranes); conditions: Table 1, [125I]PYY 80 pM, average of results, read-out: IC50
T1 construct: endogenous in cells; host or cells: KAN-Ts cells (membranes)
T1 sequence (P49146 1-381): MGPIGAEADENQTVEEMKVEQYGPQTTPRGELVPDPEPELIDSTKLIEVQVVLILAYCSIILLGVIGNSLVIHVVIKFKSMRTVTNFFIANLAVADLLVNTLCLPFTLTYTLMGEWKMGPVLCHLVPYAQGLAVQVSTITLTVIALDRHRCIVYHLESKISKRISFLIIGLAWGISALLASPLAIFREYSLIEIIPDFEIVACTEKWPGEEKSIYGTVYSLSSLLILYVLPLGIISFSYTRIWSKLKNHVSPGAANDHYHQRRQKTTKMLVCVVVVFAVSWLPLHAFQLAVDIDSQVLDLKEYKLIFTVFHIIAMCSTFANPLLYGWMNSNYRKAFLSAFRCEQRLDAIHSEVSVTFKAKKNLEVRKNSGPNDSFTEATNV
Procedure, shortened: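 IC50 values are means of three to eight experiments run in duplicate, fitted sigmoidally against specific binding (defined by […]). Competition used 80 pM [^125I]PYY for 1 h at room temperature on KAN-Ts membranes carrying native Y2, with filtration and scintillation counting.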

First: CCNC(=O)C(c1ccccc1)N1CCN(c2ccc(NC(=O)c3cccnc3Br)cc2F)CC1 (stereo not drawn) [Example 100, 2-Bromo-N-{4-[4-(ethylcarbamoyl-phenyl-methyl)-piperazin-1-yl]-3-fluoro-phenyl}-nicotinamide]
Second: CCN(CC)C(=O)C(c1ccccc1)N1CCN(c2ccc(NC(=O)c3ccccc3Br)cc2F)CC1 (stereo not drawn) [Example 111, 2-Bromo-N-{4-[4-(diethylcarbamoyl-phenyl-methyl)-piperazin-1-yl]-3-fluoro-phenyl}-benzamide]
The IC50 of the first is 2.6-fold higher: 0.89 µM for the first, 0.34 µM for the second.

`COC(=O)C(c1ccccc1)N1CCN(c2ccc(NC(=O)c3ccco3)cc2)CC1` (stereo not drawn) [Example 101, (4-{4-[(Furan-2-carbonyl)-amino]-phenyl}-piperazin-1-yl)-phenyl-acetic acid methyl ester] and `COC(=O)C(c1ccccc1)N1CCN(c2ccc(NC(=O)c3ccoc3)cc2)CC1` (stereo not drawn) [Example 102, (4-{4-[(Furan-3-carbonyl)-amino]-phenyl}-piperazin-1-yl)-phenyl-acetic acid methyl ester] are the same in IC50: 20 µM for the first, 20 µM for the second.

Compared with `COC(=O)C(c1ccccc1)N1CCN(c2ccc(NC(=O)c3ccsc3)cc2)CC1` (stereo not drawn) [Example 103, Phenyl-(4-{4-[(thiophene-3-carbonyl)-amino]-phenyl}-piperazin-1-yl)-acetic acid methyl ester], `COC(=O)C(c1ccccc1)N1CCN(c2ccc(NC(=O)c3ccc[nH]3)cc2)CC1` (stereo not drawn) [Example 104, Phenyl-(4-{4-[(1H-pyrrole-2-carbonyl)-amino]-phenyl}-piperazin-1-yl)-acetic acid methyl ester] is 2.8-fold higher in IC50: 2.5 µM for the first, 7 µM for the second.

First: COC(=O)C(c1ccccc1)N1CCN(c2ccc(NC(=O)c3ccccn3)cc2)CC1 (stereo not drawn) [Example 106, Phenyl-(4-{4-[(pyridine-2-carbonyl)-amino]-phenyl}-piperazin-1-yl)-acetic acid methyl ester]
Second: COC(=O)C(c1ccccc1)N1CCN(c2ccc(NC(=O)c3ccccc3Br)cc2)CC1 (stereo not drawn) [Example 110, {4-[4-(2-Bromo-benzoylamino)-phenyl]-piperazin-1-yl}-phenyl-acetic acid methyl ester]
The IC50 of the first is 5-fold higher: 12 µM for the first, 2.4 µM for the second.

First: COC(=O)C(c1ccccc1)N1CCN(c2ccc(NC(=O)c3cncnc3)cc2)CC1 (stereo not drawn) [Example 108, Phenyl-(4-{4-[(pyrimidine-5-carbonyl)-amino]-phenyl}-piperazin-1-yl)-acetic acid methyl ester]
Second: COC(=O)C(c1ccccc1)N1CCN(c2ccc(C(=O)Nc3ccccc3)cc2)CC1 (stereo not drawn) [Example 114, Phenyl-[4-(4-phenylcarbamoyl-phenyl)-piperazin-1-yl]-acetic acid methyl ester]
The IC50 of the first is 2.6-fold higher: 26 µM for the first, 10 µM for the second. The second is the more potent here.

Compared with `COC(=O)C(c1ccccc1)N1CCN(c2ccc(NC(=O)CC(C)C)cc2)CC1` (stereo not drawn) [Example 109, {4-[4-(3-Methyl-butyrylamino)-phenyl]-piperazin-1-yl}-phenyl-acetic acid methyl ester], `CCC(CC)NC(=O)c1ccc(N2CCN(C(C(=O)OC)c3ccccc3)CC2)cc1` (stereo not drawn) [Example 116, {4-[4-(1-Ethyl-propylcarbamoyl)-phenyl]-piperazin-1-yl}-phenyl-acetic acid methyl ester] is 1.6-fold higher in IC50: 6.1 µM for the first, 10 µM for the second. The first is the more potent here.

Going from `CCC(CC)C(=O)N(C)c1ccc(N2CCN(C(C(=O)N(CC)CC)c3ccccc3)CC2)c(F)c1` (stereo not drawn) [Example 112, N-{4-[4-(Diethylcarbamoyl-phenyl-methyl)-piperazin-1-yl]-3-fluoro-phenyl}-2-ethyl-N-methyl-butyramide] to `CCC(CC)NC(=O)c1ccc(N2CCN(C(C(=O)OC)c3ccccc3)CC2)c(F)c1` (stereo not drawn) [Example 115, {4-[4-(1-Ethyl-propylcarbamoyl)-2-fluoro-phenyl]-piperazin-1-yl}-phenyl-acetic acid methyl ester], the IC50 rises from 0.45 µM to 3.2 µM (7.1-fold).

Molecule `CCNC(=O)C(c1ccccc1)N1CCN(c2ccc(C(=O)NC(CC)CC)cc2F)CC1` (stereo not drawn) [Example 113, 4-[4-(Ethylcarbamoyl-phenyl-methyl)-piperazin-1-yl]-N-(1-ethyl-propyl)-3-fluoro-benzamide] has an IC50 of 5.75 µM.
